Laboratory results: patent publication US20080145313A1, “Compositions and Methods for the Treatment and Prevention of Neoplastic Disorders” (Genesis Research & Development Corporation Limited, priority 2006, published 2008)

Columns and labels:
[1] = tested on: target transcript mRNA in A549 cells; assay: Level of mRNA of target transcript in A549 cells by quantitative RT-PCR (Tables 12 and 13); assay type: cell-based, human; details: 24 h post-transfection; for mRNA knockdown of energy and metabolism gene target transcript, 0.1 nM / mRNA knockdown of transporter gene target transcript, 0.1 nM: 0.1 nM siRNA; for mRNA knockdown of energy and metabolism gene target transcript, 1 nM / mRNA knockdown of transporter gene target transcript, 1 nM: 1 nM siRNA
Procedure: A549 cells were transfected as described before with 0.1, 1.0 and 10 nM siRNA as listed in Tables 10 and 11 and the relative mRNA levels quantified 24 h post-transfection. RNA was purified from cells using Trizol® extraction as per the manufacturer's protocol (Invitrogen). cDNA was prepared by digesting approximately 200 ng purified RNA with DNAse I (Invitrogen) for 15 minutes at room temperature, followed by 15 minutes at 65° C. in the presence of 25 mM EDTA. 30 ng random primers were added and incubated for 10 minutes at 65° C., 1 minute on ice; Superscript® III polymerase (Invitrogen) was added in presence of 5 nM DTT (Invitrogen) and 1 mM deoxyribonucleotides (Invitrogen), and the reaction incubated at 25° C. for 5 minutes, followed by an hour at 50° C. cDNA was diluted 1:3 in 10 mM Tris pH 7.0, and quantitative RT-PCR carried out on an ABI Prism 7900HT (Applied Biosciences, Inc., Foster City, Calif.) using FastStart TaqMan SYBRGreen (Roche, Basel, Switzerland) or Platinum SYBR Green (Invitrogen) and 360 nM of the primers specific for gene targets and housekeeping genes HPRT and Lamin. Reduction in target mRNA levels following siRNA transfection are given in Tables 12 and 13, together with the gene specific primer sequences. Primer sequences used for the housekeeping genes HPRT and Lamin are given in SEQ ID NO: 4885-4888.

[2] = tested on: A549 cells; assay: Growth inhibition of siRNA-transfected A549 cells, SYBR Green I DNA content; assay type: cell-based, human; details: 10 nM siRNA; DNA content 96 hours after transfection
Procedure: A549 cells (human lung cancer cell line; ATCC No. CCL-185), SK-MeI-5 cells (human melanoma cell line; ATCC No. HTB-70), MCF-7 cells (human adenocarcinoma cell line; ATCC No. HTB-22), HCT-116 cells (colorectal carcinoma; ATCC CCL-247) and HCT-116 p53 null cells (derived from ATCC No. CCL-247; Bunz et al., Science 282:1497-1501, 1998) were cultured in RPMI 1640 medium with 10% v/v heat-inactivated fetal calf serum (FCS). Cells were seeded at a density of 5×10^4 cells/cm^2 in multi-well tissue culture plates. Sequences of Stealth™ siRNA duplexes (Invitrogen) targeting human ribonucleotide reductase subunit 1 (SEQ ID NO: 22) and subunit 2 (SEQ ID NO; 38) are given in SEQ ID NO: 4830-4832 (DNA), and SEQ ID NO: 5136-5138 (RNA) for RRM1, and SEQ ID NO: 5306-5308 (DNA), and SEQ ID NO: 5303-5305 (RNA) for RRM2. siRNAs were transfected at different concentrations into cells using Lipofectamine™ RNAiMAX transfection reagent (Invitrogen). Non-specific siRNA (SEQ ID NO: 4804 and 4805 (DNA), and SEQ ID NO: 5301 and 5302 (RNA)) were used as controls. The cellular DNA content was measured using a SYBR Green I-based fluorometric assay at 24, 48, 72 and 96 hours after transfection (120 hours for the MCF-7 cells), as follows. At the indicated time points following reverse transfection, cells were harvested and frozen at −80° C. overnight. Cells were thawed and cell lysis buffer (phosphate-buffered saline (PBS) containing 1% Triton X-100, pH 7) and SYBR Green I (1:10^5 V/V; Invitrogen) was added to the wells and incubated overnight in the dark at 4° C.
The following day, cell lysates were mixed thoroughly, and DNA fluorescence was measured with a Wallac Victor^2 plate reader (Turku, Finland) set at an excitation frequency of 485 nm and measuring emission at 535 nm.
To determine the duration of the knock-down effect of RRM1-targeting siRNA, A549 cells were reverse transfected with 1 or 10 nM RRM1-3 (SEQ ID NO: 4832 (DNA, and SEQ ID NO: 5138 (RNA)) or control siRNA (SEQ ID NO: 4804 (DNA), and SEQ ID NO: 5301 (RNA)), and growth followed over time. Growth inhibition was measured daily as described above for up to ten days. RRM1-3-mediated RRM1 silencing inhibited growth for at least 10 days post-transfection at both 1 and 10 nM (FIG. 11).
siRNA-mediated inhibition of cancer cell growth was determined in A549 cells as follows. A549 cells (human lung cancer cell line; ATCC No. CCL-185) were cultured in RPMI 1640 medium with 10% v/v heat-inactivated fetal calf serum. Cells were seeded at a density of 5×10^3 cells/cm^2 in multi-well tissue culture plates. Stealth™ siRNA duplexes (Invitrogen) targeting genes involved in cancer energy and metabolism pathways and listed in Table 9, were transfected at 10 nM into cells using Lipofectamine™ RNAiMAX transfection reagent (Invitrogen). Non-specific siRNA (SEQ ID NO: 4804 and 4805 (DNA), and SEQ ID NO: 5301 and 5302 (RNA)) were used as controls. The cellular DNA content was measured using a SYBR Green I-based fluorometric assay at 96 hours after transfection. The cells were harvested and frozen at −80° C. overnight. Cells were thawed and cell lysis buffer (phosphate-buffered saline (PBS) containing 1% Triton X-100, pH 7) and SYBR Green I (1:10^5 v/v; Invitrogen) was added to the wells and incubated overnight in the dark at 4° C. The following day, cell lysates were mixed thoroughly, and DNA fluorescence was measured with a Wallac Victor^2 plate reader (Turku, Finland) set at an excitation frequency of 485 nm and measuring emission at 535 nm.
Three different siRNAs were tested for each target gene. The average fluorescence units from three replicate wells, representing the amount of DNA per well, were used to determine the effect on growth inhibition. The results are given in Table 10 (energy and metabolism gene targets) and Table 11 (transporter gene targets).
siRNA-mediated RNAi was also determined on a panel of different cell lines. […]

| Substance | mRNA knockdown of energy and metabolism gene target transcript, 0.1 nM [1] | mRNA knockdown of energy and metabolism gene target transcript, 1 nM [1] | Growth Inhibition in A549 cells [2] | mRNA knockdown of transporter gene target transcript, 0.1 nM [1] | mRNA knockdown of transporter gene target transcript, 1 nM [1] |
| --- | --- | --- | --- | --- | --- |
| 3565 (AGCAAGAACGGTGGGATTTACT; chemistry not given here) [compound 3565] | ++ (70-90% mRNA knockdown) | +++ (>90% mRNA knockdown) | – | – | – |
| 3572 (GGTCACCAGCAAGAACGGTGGGATTTACT; chemistry not given here) [compound 3572] | + (50-70% mRNA knockdown) | ++ (70-90% mRNA knockdown) | – | – | – |
| 3573 (TGGTCACCAGCAAGAACGGTGGGATTTACT; chemistry not given here) [compound 3573] | ++ (70-90% mRNA knockdown) | +++ (>90% mRNA knockdown) | – | – | – |
| 3574 (GCGGTTTTTCTCCAAGTACTC; chemistry not given here) [compound 3574] | ++ (70-90% mRNA knockdown) | +++ (>90% mRNA knockdown) | – | – | – |
| 3575 (AGCGGTTTTTCTCCAAGTACTC; chemistry not given here) [compound 3575] | +++ (>90% mRNA knockdown) | +++ (>90% mRNA knockdown) | – | – | – |
| 3576 (AAGCGGTTTTTCTCCAAGTACTC; chemistry not given here) [compound 3576] | +++ (>90% mRNA knockdown) | +++ (>90% mRNA knockdown) | – | – | – |
| 3577 (GAAGCGGTTTTTCTCCAAGTACTC; chemistry not given here) [compound 3577] | ++ (70-90% mRNA knockdown) | +++ (>90% mRNA knockdown) | – | – | – |
| 3578 (TGAAGCGGTTTTTCTCCAAGTACTC; chemistry not given here) [compound 3578] | + (50-70% mRNA knockdown) | ++ (70-90% mRNA knockdown) | – | – | – |
| 3579 (GTGAAGCGGTTTTTCTCCAAGTACTC; chemistry not given here) [compound 3579] | ++ (70-90% mRNA knockdown) | +++ (>90% mRNA knockdown) | – | – | – |
| 3580 (AGTGAAGCGGTTTTTCTCCAAGTACTC; chemistry not given here) [compound 3580] | ++ (70-90% mRNA knockdown) | ++ (70-90% mRNA knockdown) | – | – | – |
| 3584 (ACAGAGGAGCAAGATACAGGC; chemistry not given here) [compound 3584] | ++ (70-90% mRNA knockdown) | ++ (70-90% mRNA knockdown) | – | – | – |
| 3585 (AACAGAGGAGCAAGATACAGGC; chemistry not given here) [compound 3585] | ++ (70-90% mRNA knockdown) | ++ (70-90% mRNA knockdown) | – | – | – |
| 3586 (AAACAGAGGAGCAAGATACAGGC; chemistry not given here) [compound 3586] | ++ (70-90% mRNA knockdown) | +++ (>90% mRNA knockdown) | – | – | – |
| 3592 (TGCCAAAAACAGAGGAGCAAGATACAGGC; chemistry not given here) [compound 3592] | − (<50% mRNA knockdown) | + (50-70% mRNA knockdown) | – | – | – |
| 3593 (TTGCCAAAAACAGAGGAGCAAGATACAGGC; chemistry not given here) [compound 3593] | − (<50% mRNA knockdown) | + (50-70% mRNA knockdown) | – | – | – |
| 3594 (CAGGAAGATCCTGCTCATCAG; chemistry not given here) [compound 3594] | − (<50% mRNA knockdown) | + (50-70% mRNA knockdown) | – | – | – |
| 3595 (ACAGGAAGATCCTGCTCATCAG; chemistry not given here) [compound 3595] | + (50-70% mRNA knockdown) | ++ (70-90% mRNA knockdown) | – | – | – |
| 3596 (AACAGGAAGATCCTGCTCATCAG; chemistry not given here) [compound 3596] | + (50-70% mRNA knockdown) | ++ (70-90% mRNA knockdown) | – | – | – |
| 3597 (CAACAGGAAGATCCTGCTCATCAG; chemistry not given here) [compound 3597] | + (50-70% mRNA knockdown) | ++ (70-90% mRNA knockdown) | – | – | – |
| SEQ ID NO: 4806: siRNA targeting ARNT (HIF-1β) (chain 1 ATCAGTGGATGTGTTGCCAGTTCCC; chain 2 AUCAGUGGAUGUGUUGCCAGUUCCC; chemistry not given here; one strand in two spellings) | – | – | − (no growth inhibition with any siRNA) | – | – |
| SEQ ID NO: 4914: siRNA targeting SLC19A2 (ThTr1) (chain 1 TTATATAACCAACTGCAAACACAGC; chain 2 UUAUAUAACCAACUGCAAACACAGC; chemistry not given here; one strand in two spellings) | – | – | – | ++ (70-90% mRNA knockdown) | +++ (>90% mRNA knockdown) |
| SEQ ID NO: 4915: siRNA targeting SLC19A2 (ThTr1) (chain 1 ATGACATTCAGGCTGAACAGCGACC; chain 2 AUGACAUUCAGGCUGAACAGCGACC; chemistry not given here; one strand in two spellings) | – | – | – | ++ (70-90% mRNA knockdown) | ++ (70-90% mRNA knockdown) |
